This note sets out measurements from EP0207202A1, “Anti-tumor platinum complexes” (Kidani, Yoshinori, priority 1985, dated 1987).

This assay concerns Leukemia L-1210. The note with it: for number of mice cured after 30 days of the administration of the cells of Leukemia L-1210: parenthesized figure; for number of mice cured after 30 days of the administration of the cells of Leukemia L-1210 / T/C x 100: 6 mice per group; for T/C x 100: ratio of mean survival time test/control x 100. An excerpt: Cells of Leukemia L-1210 were intraperitoneally administered to each of groups of mice(6 animals per group) at a rate of 10^5 cells per mouse, and while breeding the mice of control group, each of the compounds of the present invention was intraperitoneally administered to each mouse of the test groups after one, five and nine days of the administration of the cells, the mice of the test groups being bred similarly to those of control group. After observing the mortality of all the mice, the mean survival time period after the administration of the cells was obtained in each group including control group.

[1] abbreviates: 25 mg/kg i.p. on days 1, 5 and 9.
Where [2] appears, read: 25 mg/kg intraperitoneally on days 1, 5 and 9 after 10^5 L-1210 cells i.p.
Setting [3] is: 50 mg/kg i.p. on days 1, 5 and 9.
Setting [4] is: 50 mg/kg intraperitoneally on days 1, 5 and 9 after 10^5 L-1210 cells i.p.
Setting [5] is: 100 mg/kg intraperitoneally on days 1, 5 and 9 after 10^5 L-1210 cells i.p.
Setting [6] is: 100 mg/kg i.p. on days 1, 5 and 9.
The mark [7] stands for this setting: 6.25 mg/kg intraperitoneally on days 1, 5 and 9 after 10^5 L-1210 cells i.p.
Setting [8] is: 12.5 mg/kg intraperitoneally on days 1, 5 and 9 after 10^5 L-1210 cells i.p.

Like-named read-outs stand apart in the source and are kept apart here.

Take “Pt(NO3)(tetra-O-acetyl-α-D-glucuronato)(cis-dl-AMCHA) [Compound No. 6]”: the “number of mice cured after 30 days of the administration of the cells of Leukemia L-1210” value (“number of mice cured” for short) by setting is: under setting [1], 1; under setting [3], 3. Further, the “T/C x 100” value by setting is: under setting [2], 281; under setting [4], 402; under setting [5], 120.
In the case of “Pt(NO3)(tetra-O-acetyl-β-D-glucuronato)(cis-dl-AMCHA)·3/2H2O [Compound No. 10]”, the “number of mice cured” value under setting [1] is 1. In addition, the “T/C x 100” value is 204 under setting [2], 242 under setting [4] and 157 under setting [5]. Also, the “rate of life prolongation (T/C x 100)” value (Table 2, dose not stated) stood at 400%.
Take “Pt(NO3)(tetra-O-acetyl-β-D-glucuronato)(trans-dl-AMCHA)·2H2O [Compound No. 9]”: the “number of mice cured” value runs as follows: under setting [3], 1; under setting [6], 2. Moreover, the “T/C x 100” value by setting is: under setting [4], 253; under setting [5], 206.
With “Pt(penta-O-acetyl-D-gluconato)2(trans-dl-AMCHA)·H2O [Compound No. 15]”, the “T/C x 100” value reads like this: under setting [4], 267; under setting [5], 103.
Take “Pt(tetra-O-acetyl-α-D-glucuronato)2(cis-dl-AMCHA) [Compound No. 4]”: the “T/C x 100” value is 145 under setting [2], 198 under setting [4] and 277 under setting [5]. The “number of mice cured” value by setting is: under setting [3], 1; under setting [6], 2.
On to “PtCl(D-glucuronato)(cis-dl-AMCHA)·H2O [Compound No. 2]”, for which the “number of mice cured” value (6.25 mg/kg i.p. on days 1, 5 and 9) stood at 2. Besides, the “T/C x 100” value is, setting by setting: under setting [7], 271; under setting [8], 189; under setting [2], 156.
For the substance “PtCl(D-glucuronato)(trans-dl-AMCHA)·2H2O [Compound No. 1]”, the “T/C x 100” value is 144 under setting [7], 118 under setting [8] and 293 under setting [2]. The “number of mice cured” value under setting [1] is given as 2.
